Laboratory results from patent US20240277810A1, “INTERFERONS AND NUCLEAR EXPORT INHIBITORS FOR USE IN METHODS OF TREATING CANCER” (St. Jude Children's Research Hospital, Inc., priority 2021, published 2024).
“Also recorded” adds a separate entry of the source.

Tests used:
[1] = tested on: bone marrow-derived macrophages (BMDMs); assay: Cell death in BMDMs quantified by propidium iodide staining (real-time imaging); format: cell-based, mouse; conditions: for cell death compared with wild-type cells: Adar1−/− BMDMs; for cell death (PI staining): wild-type BMDMs, 24 hours, 5 μM KPT-330 or 5 ng/ml leptomycin B, with or without 50 ng/mL IFN-β or IFN-γ
Protocol: (§1) Cell Culture. Primary mouse bone marrow-derived macrophages (BMDMs) were generated from the bone marrow of wild-type and the indicated mutant mice. Cells were grown for 5-6 days in Iscove's Modified Dulbecco's Media (IMDM, Thermo Fisher Scientific) supplemented with 1% non-essential amino acids (Thermo Fisher Scientific), 10% fetal bovine serum (FBS, Biowest), 30% L929-conditioned media, and 1% penicillin and streptomycin (Thermo Fisher Scientific). BMDMs were then seeded into antibiotic-free media at a concentration of 1×10^6 cells into 12-well plates and incubated overnight.
(§2) Cell Stimulation. BMDMs were treated with 5 μM of KPT-330 (Selleckchem) or 5 ng/ml of leptomycin B (Sigma) in the presence and absence of 50 ng/mL of IFN-γ (Peprotech) or 50 ng/mL of IFN-β (PBL Assay) for 12 or 24 hours, as indicated.
Real-time Imaging for Cell Death. The kinetics of cell death were determined using the INCUCYTE® S3 (Essen BioScience) live-cell analysis system. BMDMs (5×10^5 cells/well) were seeded in 24-well tissue culture plates. Cells were treated with the indicated stimuli and stained with propidium iodide (PI; Life Technologies) following the manufacturer's protocol. The plate was scanned, and fluorescent and phase-contrast images (4 image fields/well) were acquired in real-time every 1 hour from 0 to 24 hours post-treatment. PI-positive dead cells are marked with a red mask for visualization. The image analysis, masking, and quantification of dead cells were done using the software package supplied with the INCUCYTE® imager.

BMDMs = assay: Immunoblot analysis of pyroptosis, apoptosis and necroptosis (PANoptosis) molecules in BMDMs; format: cell-based, mouse; conditions: for cleavage of caspase-1 and activation of GSDME, caspase-8, -3, -7 and MLKL: Adar1−/− BMDMs, NEI alone
Protocol: as §1, §2
Immunoblot Analysis. Cell lysates and culture supernatants were combined in caspase lysis buffer (containing 1× protease inhibitors (Roche), 1× phosphatase inhibitors (Roche), 10% NP-40, and 25 mM DTT) and 4× sample loading buffer (containing SDS and 2-mercaptoethanol) for immunoblot analysis of caspases. For immunoblot analysis of signaling components, supernatants were removed, and cells were washed once with Dulbecco's phosphate-buffered saline (DPBS, Thermo Fisher Scientific), followed by lysis in radioimmunoprecipitation assay (RIPA) buffer and sample loading buffer. Proteins were separated by electrophoresis through 8-12% polyacrylamide gels. Following electrophoretic transfer of proteins onto polyvinylidene fluoride (PVDF) membranes (Millipore), nonspecific binding was blocked by incubation with 5% skim milk, then membranes were incubated with primary antibodies against: caspase-3 (Cell Signaling Technology (CST), 1:1000), cleaved caspase-3 (CST, 1:1000), caspase-7 (CST, 1:1000), cleaved caspase-7 (CST, 1:1000), caspase-8 (AdipoGen, 1:1000), cleaved caspase-8 CST, 1:1000), caspase-11 (Novus Biologicals, 1:1000), caspase-1 (AdipoGen, 1:1000), GAPDH (CST, 1:1000), ZBP1 (AdipoGen, 1:1000), pMLKL (CST, 1:1000), tMLKL (Abgent, 1:1000), ADAR1 (Santa Cruz Biotechnology, 1:500), tRIPK1 (CST, 1:1000), GSDMD (Abcam, 1:1000), GSDME (Abcam, 1:1000), RIPK3 (CST, 1:1000), pSTAT1 (CST, 1:1000), tSTAT (CST, 1:1000), pIRF3 (CST, 1:1000), HA (Millipore, 1:1000), β-actin (Proteintech, 1:1000). Membranes were then washed and incubated with the appropriate horseradish peroxidase (HRP)-conjugated secondary antibodies (Jackson ImmunoResearch Laboratories; anti-rabbit, 1:5000; anti-mouse 1:5000; and anti-rat, 1:5000). Proteins were visualized using Immobilon Forte Western HRP Substrate (Millipore).

endogenous dsRNA = assay: dsRNA by J2 antibody dot-blot analysis and immunofluorescence in BMDMs; format: cell-based, mouse; conditions: for amount of dsRNA: Adar1−/− BMDMs; for amount of dsRNA compared with media-treated cells: wild-type BMDMs
Protocol: Dot Blot Analysis. For dsRNA analysis, total RNA was isolated from the cells. Equal volumes (2 μl containing 1 μg of RNA) of the RNA were dotted on HYBONDO N+ membrane (GE Healthcare), dried and auto crosslinked in a UV Stratalinker 2400 (Stratagene) two times. The membrane was then blocked in 5% milk in TBST for 1 hour and probed with J2 antibody (1:1000, Scicons) at 4° C. overnight. On the next day, the membrane was washed with TBST 3 times and probed with secondary goat-anti-mouse HRP antibody in 5% milk at room temperature for 1 hour. The total […] was detected using methylene blue.
Immunofluorescence Staining. BMDMs were washed with phosphate-buffered saline (PBS) and fixed in 4% paraformaldehyde for 15 minutes at room temperature, followed by permeabilization for 10 minutes in 0.5% TRITON® X-100 (2-[4-(2,4,4-trimethylpentan-2-yl)phenoxy]ethanol). Cells were blocked in 5% normal goat serum (Life Technologies) for 1 hour at room temperature. Samples were incubated with anti-ZBP1 antibody (1:250 dilution, Adipogen) or anti-J2 antibody (1:100, Millipore) overnight at 4° C. Cells were then washed three times with PBS and incubated with ALEXA FLUOR® 647 fluorescent dye-conjugated antibody against mouse immunoglobulin G (1:250, Invitrogen) and counterstained with DAPI (4′,6-diamidino-2-phenylindol, Life Technologies) for 1 hour at room temperature. Cells were washed three times with PBS and imaged using a Leica SP8 confocal microscope.

[2] = tested on: endogenous retroelements (EREs); assay: RT-PCR expression of endogenous retroelements (EREs) in BMDMs; format: cell-based, mouse; conditions: wild-type BMDMs, NEI alone
Protocol: RT-PCR Analysis. Total RNA was extracted using TRIZOL® (Thermo Fisher Scientific) and converted into cDNA by using the High-Capacity cDNA Reverse Transcription Kit (Applied Biosystems). Real-time quantitative PCR was performed on an Applied Biosystems 7500 real-time PCR instrument with 2×SYBR™ Green (Applied Biosystems). For ERE expression analysis, 5 μg of total RNA extracted from the cells was dissolved in 46 μl of water and mixed with 3.5 μl NaCl (5 M stock). Then, 0.5 μl RNase A (10 mg/ml stock, Thermo Fisher Scientific) or water (as mock) was added to a total volume of 50 μl and mixed, followed by incubation at room temperature for 10 minutes. Then 1 ml acid-guanidinium-phenol based reagent sold under the tradename TRIZOL® was directly added to the mixture to terminate digestion, and the RNA was extracted. The RNA transcripts of selected endogenous retroelements (EREs) were measured by RT-PCR with GAPDH as an internal control. The ratios of (ERE/GAPDH)RNAase-A/(ERE/GAPDH)mock were calculated as fold enrichment.

ZBP1 = assay: Co-immunoprecipitation of ZBP1 with ADAR1 and RIPK3 in BMDMs; format: cell-based, mouse; conditions: wild-type BMDMs, 12 hours
Protocol: Co-Immunoprecipitation Assay. BMDMs (10×10^6 cells) were seeded into 10-cm dishes and treated with IFN-β or KPT-330 or combination of IFN-β and KPT-330 for 12 hours. Then, the cells were lysed in a buffer containing 20 mM Tris-HCl (pH 7.4), 100 mM NaCl, 30 mM KCl, and 0.1% NP-40. After centrifugation at 16,000 g for 10 minutes, the lysates were incubated with anti-ZBP1 antibody (AdipoGen) with protein A/G PLUS-Agarose (Santa Cruz Biotechnology) for overnight incubation at 4° C. After washing with the above buffer, the immunoprecipitated proteins were harvested by boiling in 1×SDS loading buffer at 100° C. for 5 minutes.

B16-F10 melanoma cells = assay: B16-F10 melanoma model in mice; format: in vivo, mouse; conditions: wild-type mice; KPT-330 15 mg/kg oral, IFN-γ 10 μg or IFN-α/IFN-β 1 μg i.p., days 8, 10 and 13 after implantation
Protocol: Melanoma Model. The mouse melanoma cell line B16-F10 (ATCCR CRL-6322™) was cultured in a humidified, 5% CO2 incubator at 37° C., and grown in Dulbecco's Modified Eagle Medium (DMEM) with 10% FBS and 100 U/mL penicillin/streptomycin. Male and female 6-12-week-old mice were shaved on their lower back and engrafted with B16-F10 melanoma cells by subcutaneously injecting 1×10^6 cells in 200 μL PBS. Tumors were measured with digital calipers, and tumor volume was calculated using the formula: volume=(length×width^2)×½. For treatment with IFN-γ (Peprotech), each mouse was injected interperitoneally with 10 μg of IFN-γ in 100 μl of saline. For treatment with IFN-α or IFN-β, each mouse was injected interperitoneally with 1 μg of IFN-α or IFN-β. For treatment with KPT-330 (Selleckchem), each mouse was orally administered 300 μl of KPT-330 (15 mg/kg) suspended in 0.6% polyoxyalkylene ether sold under the tradename PLURONIC® (Gibco) and 0.6% polyvinylpyrrolidone. The treatment was given on days 8, 10 and 13 after tumor implantation.

| Molecule | cell death compared with wild-type cells [1] | cell death (PI staining) [1] | cleavage of caspase-1 and activation of GSDME, caspase-8, -3, -7 and MLKL (BMDMs) | apoptosis: cleavage of caspase-8, -3 and -7 (BMDMs; wild-type BMDMs) | cleavage of GSDME (pyroptosis) (BMDMs; wild-type BMDMs) | phosphorylation of MLKL (necroptosis) (BMDMs; wild-type BMDMs) | amount of dsRNA (endogenous dsRNA) | amount of dsRNA compared with media-treated cells (endogenous dsRNA) | expression of EREs (Mus-D, Line1, ERV-L) [2] | interaction of ZBP1 with ADAR1 (ZBP1) | interaction of ZBP1 with RIPK3 (ZBP1) | melanoma tumor growth / regression (B16-F10 melanoma cells) | expression of ZBP1 / ADAR1 (BMDMs; wild-type BMDMs) |
| --- | --- | --- | --- | --- | --- | --- | --- | --- | --- | --- | --- | --- | --- |
| CCC(=C/[C@H](C)C/C=C/C(C)=C/[C@@H](C)C(=O)[C@@H](C)[C@H](O)[C@@H](C)C/C(C)=C/C(=O)O)/C=C/[C@@H]1OC(=O)C=C[C@@H]1C [LMB, Leptomycin B] | increased cell death | low level of cell death | increased cleavage of caspase-1 and activation | induced apoptosis | displayed cleavage of GSDME | low level of phosphorylation of MLKL | An increase in the amount of dsRNA | slightly increased the amounts of dsRNA | slightly upregulated |  |  |  |  |
| O=C(/C=C\n1cnc(-c2cc(C(F)(F)F)cc(C(F)(F)F)c2)n1)NNc1cnccn1 [KPT-330, selinexor] | increased cell death | low level of cell death | increased cleavage of caspase-1 and activation | induced apoptosis | displayed cleavage of GSDME | low level of phosphorylation of MLKL | An increase in the amount of dsRNA | slightly increased the amounts of dsRNA | slightly upregulated | some interaction | some interaction | reduced melanoma growth |  |
| IFN-β: type I interferon (PBL Assay), 50 ng/mL in cells, 1 μg per mouse (protein, listed as Homo sapiens) MTNKCLLQIALLLCFSTTALSMSYNLLGFLQRSSNFQCQKLLWQLNGRLEYCLKDRMNFDIPEEIKQLQQFQKEDAALTIYEMLQNIFAIFRQDSSSTGWNETIVENLLANVYHQINHLKTVLEEKLEKEDFTRGKLMSSLHLKRYYGRILHYLKAKEYSHCAWTIVRVEILRNFYFINRLTGYLRN |  |  |  |  |  |  |  |  |  | robust interaction |  |  | induced ZBP1 expression; also recorded: upregulated |
